Key:
[1] = system: Enterobacter aerogenes; assay: Log10 reduction of viable facultative anaerobic bacteria in high-TDS phosphate buffer suspension (anaerobic acid producing media vials); type: cell-based; settings: TDS 30,000 mg l^−1, 8 = complete kill
Procedure: (§1) Aqueous systems inoculated with anaerobe and facultative anaerobe culture and having a total dissolved solids (TDS) concentration of 30,000 mg l^−1 were prepared and treated with treatment agents comprising: (a) a phosphonium compound and (b) an oxazolidine compound. The phosphonium compound (a) used was tri n-butyl n-tetradecyl phosphonium chloride (TTPC). The oxazolidine compound (b) was 4,4-dimethyloxazolidine (DMO).
(§2) A suspension of Desulfovibrio vulgaris plus Enterobacter aerogenes bacteria containing from 1×10^5 to 1×10^6 cells/mL was prepared in sterile pH 8 phosphate buffer containing sodium chloride to give the desired total dissolved solids (TDS) concentration. Aliquots of this suspension were dosed with the indicated concentrations of the compounds (a) and (b) with the concentrations being measured as ppm active. The mixtures were allowed to stand at room temperature. At the designated contact times, each mixture was sampled to determine the total number of viable cells of both Desulfovibrio vulgaris and Enterobacter aerogenes by serial 10-fold dilution into API RP 38 media vials and anaerobic acid producing media vials, respectively. The vials were incubated at 37° C. for 72 hours. Results were recorded as log10 reduction in the viable count versus the control.
(§3) The efficacy of the treatment agents was evaluated by measuring the Log10 Reduction of the anaerobic bacterium Desulfovibrio vulgaris and the facultative anaerobic bacterium Enterobacter aerogenes after contact times of 1 hour, 4 hours and 24 hours as detailed in Table 1. For TTPC the stated ppm value relates to the amount of TTPC added (active). For the 4,4-dimethyloxazolidine the stated ppm relates to the amount of 4,4-dimethyloxazolidine added (active).

[2] = system: Desulfovibrio vulgaris; assay: Log10 reduction of viable anaerobic bacteria in high-TDS phosphate buffer suspension (API RP 38 media vials); type: cell-based; settings: TDS 30,000 mg l^−1, 5 = complete kill
Procedure: as §1, §2, §3

[3] = DMO 40 ppm active, contact time 1 hour
[4] = DMO 40 ppm active, contact time 4 hours
[5] = DMO 40 ppm active, contact time 24 hours
[6] = DMO 80 ppm active, contact time 1 hour
[7] = DMO 80 ppm active, contact time 4 hours
[8] = DMO 80 ppm active, contact time 24 hours
[9] = TTPC 3.125 ppm active, contact time 1 hour
[10] = TTPC 3.125 ppm active, contact time 4 hours
[11] = TTPC 3.125 ppm active, contact time 24 hours
[12] = TTPC 6.25 ppm active, contact time 1 hour
[13] = TTPC 6.25 ppm active, contact time 4 hours
[14] = TTPC 6.25 ppm active, contact time 24 hours

CC1(C)COCN1 [DMO, 4,4-dimethyloxazolidine]
0: Log10 Reduction Facultative Anaerobes [1, 3] | Log10 Reduction Facultative Anaerobes [1, 4] | Log10 Reduction Facultative Anaerobes [1, 5] | Log10 Reduction Facultative Anaerobes [1, 6] | Log10 Reduction Facultative Anaerobes [1, 7] | Log10 Reduction Facultative Anaerobes [1, 8]
1: Log10 Reduction Anaerobes [2, 3] | Log10 Reduction Anaerobes [2, 4] | Log10 Reduction Anaerobes [2, 5] | Log10 Reduction Anaerobes [2, 6]
2: Log10 Reduction Anaerobes [2, 7] | Log10 Reduction Anaerobes [2, 8]

CCCCCCCCCCCCCC[P+](CCCC)(CCCC)CCCC.[Cl-] [TTPC, tri n-butyl n-tetradecyl phosphonium chloride]
2: Log10 Reduction Facultative Anaerobes [1, 10] | Log10 Reduction Anaerobes [2, 12]
4: Log10 Reduction Facultative Anaerobes [1, 11] | Log10 Reduction Facultative Anaerobes [1, 13]
3: Log10 Reduction Facultative Anaerobes [1, 12]
1: Log10 Reduction Facultative Anaerobes [1, 9] | Log10 Reduction Anaerobes [2, 9]
5: Log10 Reduction Facultative Anaerobes [1, 14] | Log10 Reduction Anaerobes [2, 10] | Log10 Reduction Anaerobes [2, 11] | Log10 Reduction Anaerobes [2, 13] | Log10 Reduction Anaerobes [2, 14]

— patent US10004233B2, “Relating to treatment of water” (BWA WATER ADDITIVES UK LIMITED, priority 2015, dated 2018)
